Results: ChEMBL document CHEMBL1201862, “PubChem BioAssay data set” (2004)
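Values below derive from 48-hour exposures of cells grown in 96-well plates, with endpoints linearly interpolated between the two concentrations bracketing the appropriate inhibition level. GI50 = concentration required for 50% inhibition of growth.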 Active and inactive are the calls of the source. Cut-off read from the data, not from the text of the source: active = GI50 up to about 1.1 µM and inactive = higher.

What was measured:
Assay in all cases: NCI anticancer screen, dose series, 48 h
[1] = tested on: HL-60
[2] = tested on: MCF7
[3] = tested on: UACC-62
[4] = tested on: SK-OV-3
[5] = tested on: HCT-116
[6] = tested on: HCC 2998
[7] = tested on: T47D
[8] = tested on: SK-MEL-5
[9] = tested on: K562
[10] = tested on: M14
[11] = tested on: SNB-19
[12] = tested on: A498
[13] = tested on: HOP-62
[14] = tested on: NCI-H23
[15] = tested on: HOP-92
[16] = tested on: TK-10
[17] = tested on: Hs-578T
[18] = tested on: MOLT-4
[19] = tested on: SF-295
[20] = tested on: MDA-N

Measured: GI50

O=C(O)c1ccc(NC(c2ccccc2)c2ccc3cccnc3c2O)cc1 (stereo not given)
inactive: [1] 2.65 µM | [2] 4.42 µM | [3] 6.58 µM | [4] 13.6 µM | [5] 3.67 µM | [6] 13 µM | [7] 10.9 µM | [8] 6.65 µM | [9] 3.56 µM | [10] 6.19 µM | [11] 6.7 µM | [12] 18.3 µM | [13] 6.15 µM | [14] 14.7 µM | [15] 20.2 µM | [16] 13.7 µM | [17] 28.5 µM | [18] 3.56 µM | [19] 4 µM | [20] 17.5 µM

COC(=O)c1ccccc1NC(=O)C(=O)CC(=O)c1ccccc1NC1=CC(=O)C(=O)c2ccccc21
inactive: [1] 1.55 µM | [2] 8.87 µM | [3] 8.87 µM | [4] 32.5 µM | [5] 4.67 µM | [6] 25.6 µM | [7] 18.7 µM | [8] 5.13 µM | [9] 2.91 µM | [10] 5.12 µM | [11] 20.2 µM | [12] > 56.2 µM | [13] 22.7 µM | [14] 5.09 µM | [15] 5.16 µM | [16] 67.6 µM | [17] 7.45 µM | [18] 3.98 µM | [19] 15.6 µM | [20] 1.71 µM

O=S(=O)(SC1=NCCN1)c1ccc2ccccc2c1
inactive: [1] 16.3 µM | [2] 29.4 µM | [3] 30.1 µM | [4] 22.6 µM | [5] 22.5 µM | [6] 20.6 µM | [7] 81.7 µM | [8] 26.5 µM | [9] 22.7 µM | [10] 23.3 µM | [11] 20.2 µM | [12] 92.7 µM | [13] 23.3 µM | [14] 22.9 µM | [15] 51.1 µM | [16] 89.1 µM | [17] 35.6 µM | [18] 24.8 µM | [19] 24.8 µM | [20] 19.8 µM

O=C1OCC2(CO1)CC1C=CC2C1 (stereo not given)
inactive: [1] > 100 µM | [2] > 100 µM | [3] > 100 µM | [4] > 100 µM | [5] > 100 µM | [6] > 100 µM | [7] > 100 µM | [8] > 100 µM | [9] > 100 µM | [10] > 100 µM | [11] > 100 µM | [12] > 100 µM | [13] > 100 µM | [14] > 100 µM | [15] > 100 µM | [16] > 100 µM | [17] > 100 µM | [18] > 100 µM | [19] > 100 µM | [20] > 100 µM

Cc1ccc(NC(=O)CSc2nc(C)nc3c2sc(=S)n3-c2ccccc2)cc1
inactive: [1] > 10 µM | [2] > 10 µM | [3] > 10 µM | [4] 8.2 µM | [5] 4.24 µM | [6] > 10 µM | [7] > 10 µM | [8] > 10 µM | [9] > 10 µM | [10] 2.79 µM | [11] 5.37 µM | [12] > 10 µM | [13] 2.29 µM | [14] > 10 µM | [15] 2.71 µM | [16] > 10 µM | [17] 2.66 µM | [18] > 10 µM | [19] 5 µM | [20] > 10 µM

CC(=O)CC(=O)N1CCSC1=S
inactive: [1] > 10 µM | [2] > 10 µM | [3] > 10 µM | [4] > 10 µM | [5] > 10 µM | [6] > 10 µM | [7] 6.67 µM | [8] > 10 µM | [9] > 10 µM | [10] > 10 µM | [11] > 10 µM | [12] > 10 µM | [13] > 10 µM | [14] > 10 µM | [15] > 10 µM | [16] > 10 µM | [17] > 10 µM | [18] > 10 µM | [19] > 10 µM | [20] > 10 µM

CC1CC2CCCC(=O)C2=C(O)O1 (stereo not given)
inactive: [1] > 100 µM | [2] > 100 µM | [3] > 100 µM | [4] > 100 µM | [5] > 100 µM | [6] > 100 µM | [7] > 100 µM | [8] > 100 µM | [9] > 100 µM | [10] > 100 µM | [11] 31.6 µM | [12] > 100 µM | [13] > 100 µM | [14] > 100 µM | [15] > 100 µM | [16] > 100 µM | [17] > 100 µM | [18] > 100 µM | [19] > 100 µM | [20] > 100 µM
